Measured values taken from PubChem BioAssay AID1963840 (Molecular Pharmacology Branch, DTP, NCI, 2024).
“And” between values parts separate entries of the source, which are not always exact repeats. Equal values may be shown once.

Test system: 695427-040-R-J1-PDC complex spheroid viability
Assay: Anticancer human tumor 695427-040-R-J1-PDC patient-derived colon adenocarcinoma cell line growth inhibition [POLQ]
Settings: for viability, T/C: stronger effect = lower value
Experimental: Multicellular complex tumor spheroid response to Polymerase (POL) inhibitors (novobiocin, ART-558, RP6685) in combination with a variety of drugs and investigational agents in selected tumor cell lines
The POL inhibitors (novobiocin, ART-558, and RP6685) were evaluated both individually and in combination with standard of care and investigational anticancer small molecules within a complex spheroid model of solid tumors. . Complex spheroids include a stromal component modeled by human endothelial cells (HUVEC) and fibroblasts modeled by human mesenchymal stem cells (MSCs). The concentration ranges selected for each drug and investigational agent were based upon clinically achievable concentrations if the clinical Cmax of the agent was known.
Compounds. The drugs and investigational agents: novobiocin (NSC847541), ART-558 (NSC835418), RP-6685 (NSC848927), peposertib (NSC802822), ceralasertib (NSC780249), elimusertib (NSC800525), camonsertib (NSC841442), AZD-1390 (NSC803789), olaparib (NSC753686), talazoparib (NSC767125), rucaparib (NSC756644), sotorasib (NSC818433), MRTX-1133 (NSC836407), SN-38 (NSC673596), topotecan (NSC609699), epotoside (NSC141540), doxorubicin (NSC123127), gemcitabine (NSC613327), 5-fluorouracil (NSC19893), paclitaxel (NSC125973), vemurafenib (NSC761431), MSA-2 (NSC828583), SN-011 (NSC837082), adavosertib (NSC754352), prexasertib (NSC758257), carboplatin (NSC241240) and oxaliplatin (NSC266046), were obtained from the National Cancer Institute (NCI) Developmental Therapeutics Program Chemical Repository (21). The FDA-approved anticancer drug set is available from the Developmental Therapeutics Program at https://dtp.cancer.gov/organization/dscb/obtaining/. […] The stock solutions were prepared in dimethyl sulfoxide (DMSO, Sigma-Aldrich, St. Louis, MO, cat. D2650), except for the platinum compounds which were prepared in saline (Quality Biological, Gaithersburg, MD, cat. 114-055-101), at 800-fold the tested concentration and stored at -70 degrees C prior to their use. All drugs and investigational agents were tested over a range starting from a high concentration at or near the clinical Cmax and decreasing in half-log increments. If the clinical Cmax for an agent had not been determined, the highest concentration tested was 10 microM, except for SN-38, which was tested at a high concentration of 1 microM.
Cell Culture. All cells were maintained in an incubator at 37 degrees C and 5% CO2 with 95% humidity. The PDC lines were cultured according to standard operating procedures established by the NCI PDMR (https://pdmr.cancer.gov). Table 3 of the manuscript, lists the cell lines along with the number of the three cell types plated to form the mct-spheroids and media for tumor cell growth. After thawing, all PDC lines, except 997537-175-T-J1-PDC and 415267-285-R-J2-PDC, were cultured in Matrigel-coated flasks prepared with a working solution of 1X Ham's F-12 nutrient mix, without supplementation (Thermo Fisher Scientific, cat. 11765054), 100 U/mL penicillin-streptomycin (Thermo Fisher Scientific, cat. 15140122), and 2.5% Matrigel (Corning Inc., Corning, NY, cat. 354248) for the first three passages. The two PDC lines 997537-175-T-J1-PDC and 415267-285-R-J2-PDC were cultured on uncoated flasks. The 857933-349-R-J2-PDC line was cultured in 6C/Colon 1B media containing advanced DMEM/F-12 (Thermo Fisher Scientific, cat. 12634028), 10 mM HEPES (Thermo Fisher Scientific, cat. 15630080), 1X GlutaMAX supplement (Thermo Fisher Scientific, cat. 35050061), 0.1 mg/mL primocin (InvivoGen, San Diego, CA, cat. ant-pm-2), 10% defined fetal bovine serum, heat inactivated (HyClone Laboratories Inc., Logan, UT, cat. SH30070.03HI), 50% L-WRN conditioned media (ATCC, cat. CRL-3276), 1.25 mM N-Acetyl-L-cysteine (Sigma-Aldrich, cat. A9165), 10 mM nicotinamide (Sigma-Aldrich, cat. N0636), 1X B-27 supplement (Thermo Fisher Scientific, cat. 17504044), 1X N-2 supplement (Thermo Fisher Scientific, cat. […]

[1] = compound alone, run of 10/31/2023
[2] = compound alone, run of 11/06/2023
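Note: spheroids exposed to compounds for seven days.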
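Throughout, for viability, T/C: 100% = DMSO vehicle control viability.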

SMILES	viability, T/C (compound 0.00316 µM)	viability, T/C (compound 0.01 µM)	viability, T/C (compound 0.0316 µM)	viability, T/C (compound 0.1 µM)	viability, T/C (compound 0.316 µM)	viability, T/C (compound 1 µM)	IC50 (curve of compound)	viability, T/C (compound 0.00949 µM)	viability, T/C (compound 0.03 µM)	viability, T/C (compound 0.0949 µM)	viability, T/C (compound 0.3 µM)	viability, T/C (compound 0.949 µM)	viability, T/C (compound 3 µM)	viability, T/C (compound 0.000316 µM)	viability, T/C (compound 0.001 µM)	viability, T/C (compound 3.16 µM)	viability, T/C (compound 10 µM)	IC50 [1] [µM]	IC50 [2] [µM]
C=CCn1c(=O)c2cnc(Nc3ccc(N4CCN(C)CC4)cc3)nc2n1-c1cccc(C(C)(C)O)n1	99.5% and 88.8% and 103%	90.1% and 92% and 91.7%	98.5% and 104% and 103%	103% and 99.2% and 95.7%	86.5% and 95.4% and 93.7%	77.5% and 73.7% and 82%	> 1 µM												
CC(=O)O[C@H]1C(=O)[C@@]2(C)[C@H]([C@H](OC(=O)c3ccccc3)[C@]3(O)C[C@H](OC(=O)[C@H](O)[C@@H](NC(=O)c4ccccc4)c4ccccc4)C(C)=C1C3(C)C)[C@]1(OC(C)=O)CO[C@@H]1C[C@@H]2O							> 3 µM	93.8% and 92.4% and 99.8%	86.1% and 95.4% and 86.8%	91.8% and 101% and 86.8%	90.8% and 96.8% and 89.7%	102% and 98.8% and 82.3%	84.5% and 89.3% and 74.2%						
CC[C@@]1(O)C(=O)OCc2c1cc1n(c2=O)Cc2cc3c(CN(C)C)c(O)ccc3nc2-1	102%	96.3% and 98.2% and 106%	101% and 113% and 103%	94.8% and 111% and 89.7%			> 0.1 µM							94.3% and 106% and 102%	105% and 101% and 103%				
CCc1c2c(nc3ccc(O)cc13)-c1cc3c(c(=O)n1C2)COC(=O)[C@]3(O)CC	92.3% and 98.2% and 97%	79.9% and 89.2% and 92.2%	76.8% and 99.3% and 92.6%	77.9% and 90.7% and 82.1%	65.9% and 87.4% and 76%	49.6% and 66.4% and 51.3%	> 1 µM												
CNCc1ccc(-c2[nH]c3cc(F)cc4c3c2CCNC4=O)cc1			102% and 100% and 94.1%	96.6% and 99.5% and 98.4%	106% and 104% (2×)	104% and 102% and 105%	> 10 µM									108% and 118% and 102%	102% and 111% and 103%		
COC1C(OC(N)=O)C(O)C(Oc2ccc3c(O)c(NC(=O)c4ccc(O)c(CC=C(C)C)c4)c(=O)oc3c2C)OC1(C)C (stereo unspecified)			104% [middle of 13 runs]	104% [middle of 13 runs]	106% [middle of 13 runs]	106% [middle of 13 runs]										110% [middle of 13 runs]	110% [middle of 13 runs]	> 10	
COc1cc(C2c3cc4c(cc3C(OC3OC5COC(C)OC5C(O)C3O)C3COC(=O)C23)OCO4)cc(OC)c1O (stereo unspecified)			95.6% and 105% and 95.5%	91.4% and 94.1% and 99%	96% and 96.6% and 109%	97.5% (2×) and 101%	> 10 µM									91.6% and 99.4% and 94.1%	90.2% and 90.4% and 80.9%		
COc1cccc(OCCCN)c1-c1cc(Nc2cnc(C#N)cn2)n[nH]1	94.2% and 94.8% and 102%	84.4% and 93.3% and 91.1%	80.9% and 87.1% and 92.6%	76% and 75.7% and 85.2%	53.1% and 74.3% and 72.6%	37.3% and 50.5% and 55.4%	0.448 µM and > 1 µM												
COc1cccc2c1C(=O)c1c(O)c3c(c(O)c1C2=O)CC(O)(C(=O)CO)CC3OC1CC(N)C(O)C(C)O1 (stereo unspecified)			87.5% and 98.1% and 92.7%	96.2% and 87.2% and 90.7%	95% and 96.7% and 101%	71.2% and 89.7% and 82.5%	> 10 µM									66% and 74% and 68.7%	57.1% and 69.8% and 53.8%		
Cc1cccc(N(C)C(=O)C2C(O)CCN2c2nc(C)cc(C(F)(F)F)c2C#N)c1 (stereo unspecified)			102% [middle of 13 runs]	101% [middle of 13 runs]	100% [middle of 13 runs]	100% [middle of 13 runs]										99% [middle of 13 runs]	100% [middle of 13 runs]	> 10	> 10
Cn1ncnc1[C@H]1c2n[nH]c(=O)c3cc(F)cc(c23)N[C@@H]1c1ccc(F)cc1	109% and 102% and 99.2%	101% and 109% and 104%	106% and 113% and 101%	89.5% and 97.1% and 94.2%			> 0.1 µM							105% and 96.4% and 102%	97.7% and 91% and 93.6%				
Nc1ccc(C#CCN(C(=O)Cc2ncc(C(F)(F)F)cc2C(F)(F)F)c2ccc(F)cc2)nn1			91.6% [middle of 13 runs]	102% [middle of 13 runs]	101% [middle of 13 runs]	101% [middle of 13 runs]										102% [middle of 13 runs]	105% [middle of 12 runs]		> 10
Nc1ccn(C2OC(CO)C(O)C2(F)F)c(=O)n1 (stereo unspecified)			90% and 87.3% (2×)	76.8% and 89.3% and 78.8%	70.9% and 83.7% and 72%	71.8% and 78.5% and 69%	> 10 µM									64.6% and 81.7% and 60.8%	57.5% and 64.6% and 53%		
O=C(c1cc(Cc2n[nH]c(=O)c3ccccc23)ccc1F)N1CCN(C(=O)C2CC2)CC1			102% and 101% (2×)	87.2% and 107% and 101%	102% and 110% and 100%	99% and 107% and 102%	> 10 µM									101% and 102% and 114%	97.8% and 97.4% and 107%		
O=c1[nH]cc(F)c(=O)[nH]1			105% (2×) and 104%	95.7% and 106% and 103%	93.2% and 102% and 99.6%	102% and 100% (2×)	> 10 µM									102% and 115% and 103%	96% and 111% and 99.7%		
